Data published in ChEMBL document CHEMBL5303573, “Mapping human microbiome drug metabolism by gut bacteria and their genes” (Nature, 2019).

Experiments:
[1] = The drug is tested on Clostridium spiroforme strain: DSM1552 for biotransformation. The drug concentrations were measured before and after a 12-h incubation by liquid-chromatography-coupled mass spectrometry (LC–MS); settings: thomasclavelia spiroformis, 2 µM
[2] = biological target: T1, Steroid 5-alpha reductase C-terminal domain-containing protein (Phocaeicola dorei, UniProt B6W0N3); test: (§1) The drug is tested on Bacteroides dorei strain: DSM17855 for biotransformation. The drug concentrations were measured before and after a 12-h incubation by liquid-chromatography-coupled mass spectrometry (LC–MS); format: ADME; design: dose 2 uM; settings: 2 µM
T1 sequence (B6W0N3 whole entry): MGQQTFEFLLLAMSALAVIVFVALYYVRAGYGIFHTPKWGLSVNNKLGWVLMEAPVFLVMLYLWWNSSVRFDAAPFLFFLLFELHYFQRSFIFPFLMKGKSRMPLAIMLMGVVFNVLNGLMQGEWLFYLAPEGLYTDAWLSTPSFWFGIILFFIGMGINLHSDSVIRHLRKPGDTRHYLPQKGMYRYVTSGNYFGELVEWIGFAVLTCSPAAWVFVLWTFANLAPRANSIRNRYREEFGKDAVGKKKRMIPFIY

[3] = biological target: T2, SGNH hydrolase-type esterase domain-containing protein (Phocaeicola dorei, UniProt B6W1J1); test: as §1; format: ADME; design: dose 2 uM; settings: 2 µM
T2 sequence (B6W1J1 whole entry): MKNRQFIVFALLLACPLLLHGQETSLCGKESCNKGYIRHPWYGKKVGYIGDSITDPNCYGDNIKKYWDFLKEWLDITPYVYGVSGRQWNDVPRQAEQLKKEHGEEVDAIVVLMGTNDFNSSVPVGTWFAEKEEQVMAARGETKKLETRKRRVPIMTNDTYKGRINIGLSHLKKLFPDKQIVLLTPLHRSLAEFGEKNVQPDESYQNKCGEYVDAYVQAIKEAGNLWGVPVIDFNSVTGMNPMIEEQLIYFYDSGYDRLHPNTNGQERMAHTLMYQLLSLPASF

Acyltransferase = biological target: T3, Acyltransferase (Bacteroides thetaiotaomicron, UniProt Q8A575); test: (§2) The drug is tested on Bacteroides thetaiotaomicron strain: VPI-5482 for biotransformation. The drug concentrations were measured before and after a 12-h incubation by liquid-chromatography-coupled mass spectrometry (LC–MS); format: ADME; design: dose 2 uM; settings: 2 µM
T3 sequence (Q8A575 whole entry): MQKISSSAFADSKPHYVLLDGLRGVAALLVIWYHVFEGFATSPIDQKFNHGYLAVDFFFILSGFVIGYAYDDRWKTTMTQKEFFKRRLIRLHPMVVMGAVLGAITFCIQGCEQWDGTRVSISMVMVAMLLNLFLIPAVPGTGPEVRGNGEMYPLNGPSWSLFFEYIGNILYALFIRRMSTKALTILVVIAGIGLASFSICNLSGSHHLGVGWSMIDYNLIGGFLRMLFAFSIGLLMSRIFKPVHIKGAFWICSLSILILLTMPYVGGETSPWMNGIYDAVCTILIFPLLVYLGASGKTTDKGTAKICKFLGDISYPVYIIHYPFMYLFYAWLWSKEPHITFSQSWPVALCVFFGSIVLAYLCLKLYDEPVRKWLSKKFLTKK

[4] = biological target: T4, Acetyl esterase (Acetylxylosidase) (Bacteroides thetaiotaomicron, UniProt Q8ABF8); test: as §2; format: ADME; design: dose 2 uM; settings: 2 µM
T4 sequence (Q8ABF8 whole entry): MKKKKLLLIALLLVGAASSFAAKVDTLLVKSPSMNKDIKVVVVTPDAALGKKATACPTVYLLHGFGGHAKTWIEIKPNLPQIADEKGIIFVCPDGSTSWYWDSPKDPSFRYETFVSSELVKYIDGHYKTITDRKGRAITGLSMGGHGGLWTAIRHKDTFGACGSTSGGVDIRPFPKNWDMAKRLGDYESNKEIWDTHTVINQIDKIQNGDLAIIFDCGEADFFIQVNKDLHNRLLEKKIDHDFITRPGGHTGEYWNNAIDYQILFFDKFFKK

Regulatory protein = biological target: T5, Regulatory protein (Bacteroides thetaiotaomicron, UniProt Q8A576); test: as §2; format: ADME; design: dose 2 uM; settings: 2 µM
T5 sequence (Q8A576 whole entry): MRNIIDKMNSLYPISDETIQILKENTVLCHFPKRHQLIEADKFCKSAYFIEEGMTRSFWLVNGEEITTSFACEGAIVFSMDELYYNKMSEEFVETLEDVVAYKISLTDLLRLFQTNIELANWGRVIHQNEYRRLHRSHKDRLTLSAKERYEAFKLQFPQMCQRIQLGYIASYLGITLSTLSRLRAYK

Acylhydrolase = biological target: T6, Acylhydrolase (Bacteroides thetaiotaomicron, UniProt Q8AA96); test: as §2; format: ADME; design: dose 2 uM; settings: 2 µM
T6 sequence (Q8AA96 whole entry): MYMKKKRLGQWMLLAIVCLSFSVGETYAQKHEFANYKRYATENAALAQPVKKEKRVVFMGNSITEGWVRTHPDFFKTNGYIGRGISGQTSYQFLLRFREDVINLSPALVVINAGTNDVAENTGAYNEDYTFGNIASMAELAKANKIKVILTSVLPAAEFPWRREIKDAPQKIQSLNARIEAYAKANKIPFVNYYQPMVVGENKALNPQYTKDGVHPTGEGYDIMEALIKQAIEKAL

[5] = biological target: T7, Sialic acid-specific 9-O-acetylesterase (Bacteroides thetaiotaomicron, UniProt Q8A0D0); test: as §2; format: ADME; design: dose 2 uM; settings: 2 µM
T7 sequence (Q8A0D0 whole entry): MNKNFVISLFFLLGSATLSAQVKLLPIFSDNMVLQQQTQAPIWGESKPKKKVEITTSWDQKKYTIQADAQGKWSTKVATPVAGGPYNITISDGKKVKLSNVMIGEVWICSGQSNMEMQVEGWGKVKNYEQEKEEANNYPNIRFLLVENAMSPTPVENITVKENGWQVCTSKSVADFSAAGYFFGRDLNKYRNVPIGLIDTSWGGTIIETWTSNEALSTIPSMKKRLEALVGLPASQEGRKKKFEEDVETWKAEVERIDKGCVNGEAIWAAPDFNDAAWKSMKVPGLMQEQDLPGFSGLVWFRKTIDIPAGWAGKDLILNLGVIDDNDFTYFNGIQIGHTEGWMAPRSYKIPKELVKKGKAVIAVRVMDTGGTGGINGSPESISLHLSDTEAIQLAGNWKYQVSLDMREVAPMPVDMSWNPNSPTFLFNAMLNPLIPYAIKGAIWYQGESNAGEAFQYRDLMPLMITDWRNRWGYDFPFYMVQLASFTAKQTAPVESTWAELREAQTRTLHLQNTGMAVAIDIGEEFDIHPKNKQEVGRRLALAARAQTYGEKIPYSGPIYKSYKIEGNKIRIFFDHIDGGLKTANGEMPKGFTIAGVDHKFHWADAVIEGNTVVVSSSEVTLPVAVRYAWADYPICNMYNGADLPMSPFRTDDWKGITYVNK

| SMILES | Bacterial Biotransformation [1] | Bacterial Biotransformation [2] | Bacterial Biotransformation [3] | Bacterial Biotransformation (Acyltransferase) | Bacterial Biotransformation [4] | Bacterial Biotransformation (Regulatory protein) | Bacterial Biotransformation (Acylhydrolase) | Bacterial Biotransformation [5] |
| --- | --- | --- | --- | --- | --- | --- | --- | --- |
| CCCC(=O)Nc1ccc(OCC(O)CNC(C)C)c(C(C)=O)c1 (configuration not stated) [ACEBUTOLOL] | Compound NOT metabolized |  |  |  |  |  |  |  |
| CC(C)NCC(O)COc1ccc(CC(N)=O)cc1 (configuration not stated) [ATENOLOL] | Compound NOT metabolized |  |  |  |  |  |  |  |
| CC(C)NCC(O)COc1ccc(CCOCC2CC2)cc1 (configuration not stated) [BETAXOLOL] | Compound NOT metabolized |  |  |  |  |  |  |  |
| CC(=O)Oc1ccc(C(c2ccc(OC(C)=O)cc2)c2ccccn2)cc1 [BISACODYL] |  | Compound NOT metabolized | Compound metabolized | Compound NOT metabolized | Compound metabolized | Compound NOT metabolized | Compound metabolized | Compound metabolized |
| CC(NC(C)(C)C)C(=O)c1cccc(Cl)c1 (configuration not stated) [BUPROPION] | Compound NOT metabolized |  |  |  |  |  |  |  |
| COc1ccccc1OCCNCC(O)COc1cccc2[nH]c3ccccc3c12 (configuration not stated) [CARVEDILOL] | Compound metabolized |  |  |  |  |  |  |  |
| CN/C(=N/CCSCc1nc[nH]c1C)NC#N [CIMETIDINE] | Compound NOT metabolized |  |  |  |  |  |  |  |
| Clc1cccc(Cl)c1N=C1NCCN1 [CLONIDINE] | Compound NOT metabolized |  |  |  |  |  |  |  |
| COC(=O)[C@H](c1ccccc1Cl)N1CCc2sccc2C1.O=S(=O)(O)O [CLOPIDOGREL BISULFATE] | Compound NOT metabolized |  |  |  |  |  |  |  |
| CN1CCN(C2=Nc3cc(Cl)ccc3Nc3ccccc32)CC1 [CLOZAPINE] | Compound NOT metabolized |  |  |  |  |  |  |  |
| CN(C)CCC=C1c2ccccc2C=Cc2ccccc21 [CYCLOBENZAPRINE] | Compound NOT metabolized |  |  |  |  |  |  |  |
| O=P1(N(CCCl)CCCl)NCCCO1 (configuration not stated) [CYCLOPHOSPHAMIDE ANHYDROUS] | Compound NOT metabolized |  |  |  |  |  |  |  |
| C#C[C@]1(O)CC[C@H]2[C@@H]3CCC4=Cc5oncc5C[C@]4(C)[C@H]3CC[C@@]21C [DANAZOL] |  | Compound NOT metabolized | Compound NOT metabolized | Compound NOT metabolized | Compound NOT metabolized | Compound NOT metabolized | Compound metabolized | Compound NOT metabolized |
| CC(=O)OCC(=O)[C@@]12N=C(C)O[C@@H]1C[C@H]1[C@@H]3CCC4=CC(=O)C=C[C@]4(C)[C@H]3[C@@H](O)C[C@@]12C [DEFLAZACORT] |  | Compound NOT metabolized |  | Compound NOT metabolized | Compound NOT metabolized | Compound NOT metabolized | Compound metabolized | Compound NOT metabolized |
| CC(=O)Nc1ccc(OC(C)=O)cc1 [DIACETAMATE] |  | Compound NOT metabolized | Compound metabolized | Compound NOT metabolized | Compound metabolized | Compound metabolized | Compound metabolized | Compound metabolized |
| CCN(CC)C(=O)/C(C#N)=C/c1cc(O)c(O)c([N+](=O)[O-])c1 [ENTACAPONE] |  | Compound NOT metabolized | Compound NOT metabolized | Compound NOT metabolized | Compound NOT metabolized | Compound NOT metabolized | Compound NOT metabolized | Compound NOT metabolized |
| c1ccc([C@H]2CN3CCSC3=N2)cc1 [LEVAMISOLE] | Compound NOT metabolized |  |  |  |  |  |  |  |
| CCOC(=O)C1=C(C)NC(C)=C(C(=O)OC)C1c1cccc([N+](=O)[O-])c1 (configuration not stated) [NITRENDIPINE] |  | Compound NOT metabolized | Compound NOT metabolized | Compound NOT metabolized | Compound NOT metabolized | Compound NOT metabolized | Compound NOT metabolized | Compound NOT metabolized |
| COc1ccnc(C[S+]([O-])c2nc3ccc(OC(F)F)cc3[nH]2)c1OC (configuration not stated) [PANTOPRAZOLE] |  | Compound NOT metabolized | Compound metabolized | Compound NOT metabolized | Compound NOT metabolized | Compound NOT metabolized | Compound NOT metabolized | Compound NOT metabolized |
| Nc1ccc(/N=N/c2ccccc2)c(N)n1 [PHENAZOPYRIDINE] |  | Compound NOT metabolized | Compound NOT metabolized | Compound NOT metabolized | Compound NOT metabolized | Compound NOT metabolized | Compound NOT metabolized | Compound NOT metabolized |
| CC(=O)SCC(Cc1ccccc1)C(=O)NCC(=O)OCc1ccccc1 (configuration not stated) [RACECADOTRIL] |  | Compound NOT metabolized | Compound NOT metabolized | Compound NOT metabolized | Compound metabolized | Compound NOT metabolized | Compound metabolized | Compound metabolized |
| CCOc1cc(CC(=O)N[C@@H](CC(C)C)c2ccccc2N2CCCCC2)ccc1C(=O)O [REPAGLINIDE] | Compound NOT metabolized |  |  |  |  |  |  |  |
| CC(=O)OCC(=O)NCCCOc1cccc(CN2CCCCC2)c1 [ROXATIDINE ACETATE] |  | Compound NOT metabolized | Compound NOT metabolized | Compound NOT metabolized | Compound metabolized | Compound metabolized | Compound metabolized | Compound NOT metabolized |
| O=C(O)c1cc(/N=N/c2ccc(S(=O)(=O)Nc3ccccn3)cc2)ccc1O [SULFASALAZINE] |  | Compound NOT metabolized | Compound NOT metabolized | Compound NOT metabolized |  | Compound NOT metabolized |  | Compound NOT metabolized |
